Reference: the supplement of paper PMC13207355
Where a name gives a salt, the structure may show the parent alone.

Columns and labels:
Conditions in all cases: exposure time: 72 h
[1] = test system: FT3469 (normal neural stem cell line); test: surviving fraction (nuclei count normalised to DMSO); higher = more cells surviving (less toxic)
[2] = test system: E13 (patient-derived glioblastoma stem cells of classical subtype); test: as above
[3] = test system: E57 (patient-derived glioblastoma stem cells of mesenchymal subtype); test: as above
[4] = test system: E28 (patient-derived glioblastoma stem cells of classical subtype); test: as above
[5] = test system: E34 (patient-derived glioblastoma stem cells of proneural subtype); test: as above
[6] = test system: E21 (patient-derived glioblastoma stem cells of mesenchymal subtype); test: as above
[7] = test system: E31 (patient-derived glioblastoma stem cells of proneural subtype); test: as above
[8] = test system: FT3469; test: phenotypic distance (Euclidean, principal components) from DMSO controls (arbitrary units); higher = stronger morphological change
[9] = test system: E13; test: as above
[10] = test system: E57; test: as above
[11] = test system: E28; test: as above
[12] = test system: E34; test: as above
[13] = test system: E21; test: as above
[14] = test system: E31; test: as above
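For phenotypic distance (Euclidean, principal components) from DMSO controls in this document: cell Painting imaging in 384-well plates, CellProfiler features reduced to at least 20 principal components, Euclidean distance versus same-plate DMSO vehicle wells (0.1% v/v), median over six images per well.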
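For surviving fraction (nuclei count normalised to DMSO) in this document: nuclei counted by high-content imaging of Hoechst-stained cells in laminin-coated 384-well plates, relative to 0.1% DMSO vehicle wells, with staurosporine as cell-death control.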

CC[C@@]1(O)C(=O)OCc2c1cc1n(c2=O)Cc2cc3c(CN(C)C)c(O)ccc3nc2-1 [Topotecan]
surviving fraction ([1]; 4.1 nM): 0.622 | surviving fraction ([1]; 12.3 nM): 0.625 | surviving fraction ([1]; 37 nM): 0.634 | surviving fraction ([1]; 111.1 nM): 0.653 | surviving fraction ([1]; 333.3 nM): 0.629 | surviving fraction ([1]; 1000 nM): 0.446 | surviving fraction ([1]; 3000 nM): 0.464 | surviving fraction ([2]; 4.1 nM): 0.414 | surviving fraction ([2]; 12.3 nM): 0.381 | surviving fraction ([2]; 37 nM): 0.367 | surviving fraction ([2]; 111.1 nM): 0.279 | surviving fraction ([2]; 333.3 nM): 0.251 | surviving fraction ([2]; 1000 nM): 0.206 | surviving fraction ([2]; 3000 nM): 0.176 | surviving fraction ([3]; 4.1 nM): 0.321 | surviving fraction ([3]; 12.3 nM): 0.211 | surviving fraction ([3]; 37 nM): 0.175 | surviving fraction ([3]; 111.1 nM): 0.164 | surviving fraction ([3]; 333.3 nM): 0.145 | surviving fraction ([3]; 1000 nM): 0.129 | surviving fraction ([3]; 3000 nM): 0.109 | surviving fraction ([4]; 4.1 nM): 0.408 | surviving fraction ([4]; 12.3 nM): 0.351 | surviving fraction ([4]; 37 nM): 0.384 | surviving fraction ([4]; 111.1 nM): 0.347 | surviving fraction ([4]; 333.3 nM): 0.333 | surviving fraction ([4]; 1000 nM): 0.288 | surviving fraction ([4]; 3000 nM): 0.28 | surviving fraction ([5]; 4.1 nM): 0.539 | surviving fraction ([5]; 12.3 nM): 0.576 | surviving fraction ([5]; 37 nM): 0.519 | surviving fraction ([5]; 111.1 nM): 0.55 | surviving fraction ([5]; 333.3 nM): 0.529 | surviving fraction ([5]; 1000 nM): 0.519 | surviving fraction ([5]; 3000 nM): 0.389 | surviving fraction ([6]; 4.1 nM): 0.191 | surviving fraction ([6]; 12.3 nM): 0.135 | surviving fraction ([6]; 37 nM): 0.114 | surviving fraction ([6]; 111.1 nM): 0.115 | surviving fraction ([6]; 333.3 nM): 0.13 | surviving fraction ([6]; 1000 nM): 0.113 | surviving fraction ([6]; 3000 nM): 0.104 | surviving fraction ([7]; 4.1 nM): 0.173 | surviving fraction ([7]; 12.3 nM): 0.149 | surviving fraction ([7]; 37 nM): 0.188 | surviving fraction ([7]; 111.1 nM): 0.176 | surviving fraction ([7]; 333.3 nM): 0.249 | surviving fraction ([7]; 1000 nM): 0.17 | surviving fraction ([7]; 3000 nM): 0.213 | phenotypic distance ([8]; 4.1 nM): 2.65 | phenotypic distance ([8]; 12.3 nM): 1.91 | phenotypic distance ([8]; 37 nM): 2.54 | phenotypic distance ([8]; 111.1 nM): 2.79 | phenotypic distance ([8]; 333.3 nM): 2.66 | phenotypic distance ([8]; 1000 nM): 3.43 | phenotypic distance ([8]; 3000 nM): 3.06 | phenotypic distance ([9]; 4.1 nM): 5.03 | phenotypic distance ([9]; 12.3 nM): 5.52 | phenotypic distance ([9]; 37 nM): 5.83 | phenotypic distance ([9]; 111.1 nM): 6.68 | phenotypic distance ([9]; 333.3 nM): 6.45 | phenotypic distance ([9]; 1000 nM): 6.68 | phenotypic distance ([9]; 3000 nM): 7.15 | phenotypic distance ([10]; 4.1 nM): 6.01 | phenotypic distance ([10]; 12.3 nM): 7.66 | phenotypic distance ([10]; 37 nM): 7.47 | phenotypic distance ([10]; 111.1 nM): 7.5 | phenotypic distance ([10]; 333.3 nM): 7.56 | phenotypic distance ([10]; 1000 nM): 6.96 | phenotypic distance ([10]; 3000 nM): 7.64 | phenotypic distance ([11]; 4.1 nM): 3.44 | phenotypic distance ([11]; 12.3 nM): 3.75 | phenotypic distance ([11]; 37 nM): 3.05 | phenotypic distance ([11]; 111.1 nM): 3.65 | phenotypic distance ([11]; 333.3 nM): 3.55 | phenotypic distance ([11]; 1000 nM): 4.27 | phenotypic distance ([11]; 3000 nM): 4.08 | phenotypic distance ([12]; 4.1 nM): 3.5 | phenotypic distance ([12]; 12.3 nM): 2.99 | phenotypic distance ([12]; 37 nM): 3.02 | phenotypic distance ([12]; 111.1 nM): 2.09 | phenotypic distance ([12]; 333.3 nM): 2.86 | phenotypic distance ([12]; 1000 nM): 4.13 | phenotypic distance ([12]; 3000 nM): 3.32 | phenotypic distance ([13]; 4.1 nM): 4.95 | phenotypic distance ([13]; 12.3 nM): 5.78 | phenotypic distance ([13]; 37 nM): 6.25 | phenotypic distance ([13]; 111.1 nM): 6.93 | phenotypic distance ([13]; 333.3 nM): 5.67 | phenotypic distance ([13]; 1000 nM): 5.76 | phenotypic distance ([13]; 3000 nM): 5.07 | phenotypic distance ([14]; 4.1 nM): 3.31 | phenotypic distance ([14]; 12.3 nM): 3.53 | phenotypic distance ([14]; 37 nM): 2.95 | phenotypic distance ([14]; 111.1 nM): 3.38 | phenotypic distance ([14]; 333.3 nM): 3.17 | phenotypic distance ([14]; 1000 nM): 3.49 | phenotypic distance ([14]; 3000 nM): 3.68

CCC[C@@H]1C[C@@H](C(=O)N[C@@H]([C@H]2O[C@H](SC)[C@H](O)[C@@H](O)[C@H]2O)[C@@H](C)O)N(C)C1 [Lincomycin hydrochloride]
surviving fraction ([1]; 4.1 nM): 0.948 | surviving fraction ([1]; 12.3 nM): 0.951 | surviving fraction ([1]; 37 nM): 0.828 | surviving fraction ([1]; 111.1 nM): 1.15 | surviving fraction ([1]; 333.3 nM): 1.1 | surviving fraction ([1]; 1000 nM): 1.08 | surviving fraction ([1]; 3000 nM): 1.08 | surviving fraction ([2]; 4.1 nM): 0.937 | surviving fraction ([2]; 12.3 nM): 0.912 | surviving fraction ([2]; 37 nM): 0.891 | surviving fraction ([2]; 111.1 nM): 0.967 | surviving fraction ([2]; 333.3 nM): 1.07 | surviving fraction ([2]; 1000 nM): 1.1 | surviving fraction ([2]; 3000 nM): 0.894 | surviving fraction ([3]; 4.1 nM): 1.09 | surviving fraction ([3]; 12.3 nM): 1.08 | surviving fraction ([3]; 37 nM): 0.957 | surviving fraction ([3]; 111.1 nM): 1.07 | surviving fraction ([3]; 333.3 nM): 0.959 | surviving fraction ([3]; 1000 nM): 0.997 | surviving fraction ([3]; 3000 nM): 0.976 | surviving fraction ([4]; 4.1 nM): 1.05 | surviving fraction ([4]; 12.3 nM): 1.04 | surviving fraction ([4]; 37 nM): 1.08 | surviving fraction ([4]; 111.1 nM): 0.956 | surviving fraction ([4]; 333.3 nM): 1.12 | surviving fraction ([4]; 1000 nM): 1.12 | surviving fraction ([4]; 3000 nM): 1.03 | surviving fraction ([5]; 4.1 nM): 0.988 | surviving fraction ([5]; 12.3 nM): 0.937 | surviving fraction ([5]; 37 nM): 0.909 | surviving fraction ([5]; 111.1 nM): 1.09 | surviving fraction ([5]; 333.3 nM): 1.11 | surviving fraction ([5]; 1000 nM): 1.25 | surviving fraction ([5]; 3000 nM): 0.902 | surviving fraction ([6]; 4.1 nM): 0.94 | surviving fraction ([6]; 12.3 nM): 0.873 | surviving fraction ([6]; 37 nM): 0.963 | surviving fraction ([6]; 111.1 nM): 0.936 | surviving fraction ([6]; 333.3 nM): 0.972 | surviving fraction ([6]; 1000 nM): 0.984 | surviving fraction ([6]; 3000 nM): 0.94 | surviving fraction ([7]; 4.1 nM): 1.03 | surviving fraction ([7]; 12.3 nM): 0.994 | surviving fraction ([7]; 37 nM): 1.03 | surviving fraction ([7]; 111.1 nM): 1.15 | surviving fraction ([7]; 333.3 nM): 1.1 | surviving fraction ([7]; 1000 nM): 1.21 | surviving fraction ([7]; 3000 nM): 0.936 | phenotypic distance ([8]; 4.1 nM): 0.783 | phenotypic distance ([8]; 12.3 nM): 0.977 | phenotypic distance ([8]; 37 nM): 0.592 | phenotypic distance ([8]; 111.1 nM): 0.704 | phenotypic distance ([8]; 333.3 nM): 0.658 | phenotypic distance ([8]; 1000 nM): 1.03 | phenotypic distance ([8]; 3000 nM): 0.496 | phenotypic distance ([9]; 4.1 nM): 0.648 | phenotypic distance ([9]; 12.3 nM): 0.534 | phenotypic distance ([9]; 37 nM): 0.423 | phenotypic distance ([9]; 111.1 nM): 0.641 | phenotypic distance ([9]; 333.3 nM): 0.442 | phenotypic distance ([9]; 1000 nM): 0.768 | phenotypic distance ([9]; 3000 nM): 0.427 | phenotypic distance ([10]; 4.1 nM): 0.854 | phenotypic distance ([10]; 12.3 nM): 1.06 | phenotypic distance ([10]; 37 nM): 0.755 | phenotypic distance ([10]; 111.1 nM): 0.617 | phenotypic distance ([10]; 333.3 nM): 0.478 | phenotypic distance ([10]; 1000 nM): 0.463 | phenotypic distance ([10]; 3000 nM): 0.394 | phenotypic distance ([11]; 4.1 nM): 0.634 | phenotypic distance ([11]; 12.3 nM): 0.929 | phenotypic distance ([11]; 37 nM): 1.11 | phenotypic distance ([11]; 111.1 nM): 0.703 | phenotypic distance ([11]; 333.3 nM): 0.726 | phenotypic distance ([11]; 1000 nM): 0.598 | phenotypic distance ([11]; 3000 nM): 0.576 | phenotypic distance ([12]; 4.1 nM): 0.57 | phenotypic distance ([12]; 12.3 nM): 0.706 | phenotypic distance ([12]; 37 nM): 0.876 | phenotypic distance ([12]; 111.1 nM): 1.02 | phenotypic distance ([12]; 333.3 nM): 0.802 | phenotypic distance ([12]; 1000 nM): 0.879 | phenotypic distance ([12]; 3000 nM): 0.674 | phenotypic distance ([13]; 4.1 nM): 0.423 | phenotypic distance ([13]; 12.3 nM): 0.813 | phenotypic distance ([13]; 37 nM): 0.629 | phenotypic distance ([13]; 111.1 nM): 0.635 | phenotypic distance ([13]; 333.3 nM): 0.696 | phenotypic distance ([13]; 1000 nM): 0.667 | phenotypic distance ([13]; 3000 nM): 0.478 | phenotypic distance ([14]; 4.1 nM): 0.488 | phenotypic distance ([14]; 12.3 nM): 0.574 | phenotypic distance ([14]; 37 nM): 0.621 | phenotypic distance ([14]; 111.1 nM): 0.44 | phenotypic distance ([14]; 333.3 nM): 0.659 | phenotypic distance ([14]; 1000 nM): 0.74 | phenotypic distance ([14]; 3000 nM): 0.788
